Test results reported in US5162333A, “Aminodiesters of rapamycin” (American Home Products Corporation, priority 1991, dated 1992).

What was measured:
[1] = system: thymocyte proliferation (cells from the thymus of normal BALB/c mice, PHA and IL-1); test: comitogen-induced thymocyte proliferation procedure (LAF); type: cell-based; settings: for LAF (ratio): calculation described in b29 (formula not shown)
Description: (§1) Immunosuppressive activity was evaluated in an in vitro standard pharmacological test procedure to measure lymphocyte proliferation (LAF) and in two in vivo standard pharmacological test procedures. The first in vivo procedure was a popliteal lymph node (PLN) test procedure which measured the effect of compounds of this invention on a mixed lymphocyte reaction and the second in vivo procedure evaluated the survival time of a pinch skin graft.
Briefly, cells from the thymus of normal BALB/c mice are cultured for 72 hours with PHA and IL-1 and pulsed with tritiated thymidine during the last six hours. […] Cells are harvested and incorporated; radioactivity is determined. Inhibition of lymphoproliferation is assessed in percent change in counts per minute from non-drug treated controls. The results are expressed by the following ratio, or as the IC50, expressed in nM. [formula]

[2] = system: mixed lymphocyte reaction in popliteal lymph node; test: popliteal lymph node (PLN) test procedure, in vivo mixed lymphocyte reaction; set-up: species or system mouse (BALB/c donors, C3H mice recipients); settings: for PLN (ratio): p.o. daily Day 0 to Day 4, calculation described in b30 (formula not shown)
Description: as §1
A mixed lymphocyte reaction (MLR) occurs when lymphoid cells from genetically distinct animals are combined in tissue culture. Each stimulates the other to undergo blast transformation which results in increased DNA synthesis that can be quantified by the incorporation of tritiated thymidine. Since stimulating a MLR is a function of disparity at Major Histocompatibility antigens, an in vivo popliteal lymph node (PLN) test procedure closely correlates to host vs. graft disease. Briefly, irradiated spleen cells from BALB/c donors are injected into the right hind foot pad of recipient C3H mice. The drug is given daily, p.o. from Day 0 to Day 4. On Day 3 and Day 4, tritiated thymidine is given i.p., b.i.d. On Day 5, the hind popliteal lymph nodes are removed and dissolved, and radioactivity counted. The corresponding left PLN serves as the control for the PLN from the injected hind foot. Percent suppression is calculated using the non-drug treated animals as allogenic control. […] Results are expressed by the following ratio: [formula]

[3] = system: pinch skin graft from male DBA/2 donors transplanted to male BALB/c recipients; test: survival time of pinch skin graft; type: in vivo, mouse (DBA/2 donors; settings: intraperitoneally; days to rejection
Description: as §1
The second in vivo test procedure is designed to determine the survival time of pinch skin graft from male DBA/2 donors transplanted to male BALB/c recipients. The method is adapted from Billingham R. E. and Medawar P. B., J. Exp. Biol. 28:385-402, (1951). Briefly, a pinch skin graft from the donor is grafted on the dorsum of the recipient as a homograft, and an autograft is used as control in the same region. […] Untreated recipients serve as rejection control. The graft is monitored daily and observations are recorded until the graft becomes dry and forms a blackened scab. This is considered as the rejection day. The mean graft survival time (number of days±S.D.) of the drug treatment group is compared with the control group.

Candida albicans = settings: particularly against Candida albicans, both in vitro and in vivo; cited from earlier work
[4] = system: experimental allergic encephalomyelitis model, a model for multiple sclerosis; settings: in vivo; cited from earlier work
[5] = system: formation of IgE-like antibodies; settings: cited from earlier work
[6] = system: organ grafts in histoincompatible rodents; settings: cited from earlier work

| Structure (SMILES) | LAF (ratio) [1] | PLN (ratio) [2] | Skin Graft (mean graft survival time) [3] | IC50 ([1]; Mus musculus, Thymocyte, read-out: LAF IC50) [nM] | Percent suppression in PLN ([2]; 6 mg/kg, p.o., vs non-drug treated allogenic control) [%] | antifungal activity (Candida albicans) | effect in experimental allergic encephalomyelitis model [4] | inhibition of the formation of IgE-like antibodies [5] | survival time of organ grafts [6] |
| --- | --- | --- | --- | --- | --- | --- | --- | --- | --- |
| CO[C@H]1C[C@@H]2CC[C@@H](C)[C@@](O)(O2)C(=O)C(=O)N2CCCC[C@H]2C(=O)O[C@H]([C@H](C)C[C@@H]2CC[C@@H](OC(=O)CC[C@H](NC(=O)OCc3ccccc3)C(=O)O[C@@H]3CC[C@@H](C[C@@H](C)[C@@H]4CC(=O)[C@H](C)/C=C(\C)[C@@H](O)[C@@H](OC)C(=O)[C@H](C)C[C@H](C)/C=C/C=C/C=C(\C)[C@@H](OC)C[C@@H]5CC[C@@H](C)[C@@](O)(O5)C(=O)C(=O)N5CCCC[C@H]5C(=O)O4)C[C@H]3OC)[C@H](OC)C2)CC(=O)[C@H](C)/C=C(\C)[C@@H](O)[C@@H](OC)C(=O)[C@H](C)C[C@H](C)/C=C/C=C/C=C/1C [Example 1, Rapamycin-42,42'-diester with N-[(phenylmethoxy)carbonyl]-L-glutamic acid] | 0.53 | 0.45 | 10.2 ± 0.4 days ± SD |  |  |  |  |  |  |
| CO[C@H]1C[C@@H]2CC[C@@H](C)[C@@](O)(O2)C(=O)C(=O)N2CCCC[C@H]2C(=O)O[C@H]([C@H](C)C[C@@H]2CC[C@@H](OC(=O)C[C@H](NC(=O)OCc3ccccc3)C(=O)O[C@@H]3CC[C@@H](C[C@@H](C)[C@@H]4CC(=O)[C@H](C)/C=C(\C)[C@@H](O)[C@@H](OC)C(=O)[C@H](C)C[C@H](C)/C=C/C=C/C=C(\C)[C@@H](OC)C[C@@H]5CC[C@@H](C)[C@@](O)(O5)C(=O)C(=O)N5CCCC[C@H]5C(=O)O4)C[C@H]3OC)[C@H](OC)C2)CC(=O)[C@H](C)/C=C(\C)[C@@H](O)[C@@H](OC)C(=O)[C@H](C)C[C@H](C)/C=C/C=C/C=C/1C [Example 2, Rapamycin 42-42'-diester with N-[(phenylmethoxycarbonyl)]-L-aspartic acid] | 0.32 | 0.45 | 10.7 ± 0.2 days ± SD |  |  |  |  |  |  |
| CO[C@H]1C[C@@H]2CC[C@@H](C)[C@@](O)(O2)C(=O)C(=O)N2CCCC[C@H]2C(=O)O[C@H]([C@H](C)C[C@@H]2CC[C@@H](O)[C@H](OC)C2)CC(=O)[C@H](C)/C=C(\C)[C@@H](O)[C@@H](OC)C(=O)[C@H](C)C[C@H](C)/C=C/C=C/C=C/1C [Rapamycin, rapamycin] |  |  | 12.0 ± 1.7 days ± SD | 8.7 | 86 | antifungal activity, particularly against Candida albicans, both in vitro and in vivo | effective | effectively inhibited the formation of IgE-like antibodies | prolong survival time of organ grafts |
